Reference: ChEMBL document CHEMBL1201862, “PubChem BioAssay data set” (2004)
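How tested: cells in 96-well plates exposed to compound for 48 hours at five concentrations. GI50 = concentration required for 50% inhibition of growth.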 Active and inactive are the calls of the source. Rule as the data show it: active = GI50 up to about 1.1 µM and inactive = higher.

Legend:
Assay in all cases: NCI tumour cell line growth inhibition, 48 h
EKVX = test system: EKVX
IGROV-1 = test system: IGROV-1
SF-295 = test system: SF-295
UACC-257 = test system: UACC-257
HOP-62 = test system: HOP-62
M19-MEL = test system: M19-MEL
A498 = test system: A498
CCRF-CEM = test system: CCRF-CEM
NCI-H460 = test system: NCI-H460
TK-10 = test system: TK-10
OVCAR-8 = test system: OVCAR-8
U-251 = test system: U-251
ACHN = test system: ACHN
RPMI-8226 = test system: RPMI-8226
DU-145 = test system: DU-145
MDA-N = test system: MDA-N
MCF7 = test system: MCF7
MDA-MB-435 = test system: MDA-MB-435
Hs-578T = test system: Hs-578T

Measured: GI50

O=C(O)c1nc(-c2ccc(Cl)c(Cl)c2)nc2ccc(Cl)cc12
inactive: EKVX > 100 µM | IGROV-1 51.5 µM | SF-295 45.9 µM | UACC-257 > 100 µM | HOP-62 38.2 µM | M19-MEL > 100 µM | A498 > 100 µM | CCRF-CEM > 10 µM | NCI-H460 > 100 µM | TK-10 44.8 µM | OVCAR-8 70.6 µM | U-251 61.5 µM | ACHN > 100 µM | RPMI-8226 > 100 µM

COc1ccc(N2C(=O)[C@@H]3[C@H](C2=O)c2[nH]c4ccccc4c2C2CCC(C(C)(C)C)C[C@@H]23)cc1 (stereo not given in full)
inactive: EKVX 28.4 µM | IGROV-1 34.1 µM | SF-295 12.3 µM | UACC-257 40.6 µM | HOP-62 16.5 µM | M19-MEL 46.9 µM | A498 26 µM | CCRF-CEM 15.3 µM | NCI-H460 25.2 µM | TK-10 28 µM | OVCAR-8 18 µM | U-251 20.9 µM | ACHN 24.3 µM | RPMI-8226 22.4 µM

CC(=O)NNc1nc(C)c(C(/C=C/c2ccc(Cl)cc2)=N\NS(=O)(=O)c2ccc(C)cc2)s1
inactive: EKVX > 100 µM | IGROV-1 > 100 µM | SF-295 > 100 µM | UACC-257 > 100 µM | HOP-62 > 100 µM | M19-MEL > 100 µM | A498 > 100 µM | CCRF-CEM > 100 µM | NCI-H460 > 100 µM | TK-10 > 100 µM | OVCAR-8 > 100 µM | U-251 > 100 µM | ACHN > 100 µM | RPMI-8226 > 100 µM

CCOC(=O)CCc1c(C)c2c(OC)cc(OC)cc2oc1=O
inactive: EKVX 54.7 µM | SF-295 > 100 µM | UACC-257 > 100 µM | HOP-62 > 100 µM | M19-MEL > 100 µM | NCI-H460 > 100 µM | TK-10 > 100 µM | OVCAR-8 > 100 µM | U-251 > 100 µM | ACHN 42.4 µM

C=CC(C)CCC(C/C=C(\C)CCCC(C)C)C(=C)CCCC(C)C (stereo not given)
inactive: DU-145 > 100 µM | EKVX > 100 µM | IGROV-1 > 100 µM | SF-295 > 100 µM | UACC-257 > 100 µM | HOP-62 > 100 µM | MDA-N > 100 µM | MCF7 > 100 µM | A498 > 100 µM | CCRF-CEM > 100 µM | NCI-H460 > 100 µM | TK-10 > 100 µM | OVCAR-8 > 100 µM | U-251 > 100 µM | MDA-MB-435 > 100 µM | ACHN > 100 µM | RPMI-8226 > 100 µM | Hs-578T > 100 µM

COC(=O)[C@]1(C)CCC[C@@]2(C)C1CCC1=CC3(C(C)C)CCC12OO3 (stereo not given in full)
inactive: EKVX 90.6 µM | IGROV-1 > 100 µM | SF-295 46.5 µM | UACC-257 31.5 µM | HOP-62 > 100 µM | M19-MEL 32.2 µM | A498 18.7 µM | CCRF-CEM 31.2 µM | NCI-H460 58.6 µM | TK-10 > 100 µM | OVCAR-8 63.8 µM | U-251 > 100 µM | ACHN 63.4 µM | RPMI-8226 43.1 µM

CC(=O)OCCOCn1cnc2c(Cl)nc(Cl)nc21
inactive: DU-145 19.5 µM | EKVX 2.84 µM | IGROV-1 14.3 µM | SF-295 > 10 µM | UACC-257 17.1 µM | HOP-62 17.7 µM | MDA-N 17.4 µM | MCF7 > 10 µM | A498 32.2 µM | CCRF-CEM 6.37 µM | NCI-H460 18.5 µM | TK-10 39.4 µM | OVCAR-8 20.8 µM | U-251 15 µM | MDA-MB-435 17.3 µM | ACHN 16.5 µM | RPMI-8226 5.97 µM | Hs-578T 18.7 µM

Cc1ccc2c(c1)C(=O)C1(C2)Cc2ccc(C)cc2C1=O
inactive: DU-145 > 100 µM | EKVX > 100 µM | IGROV-1 > 100 µM | SF-295 > 100 µM | UACC-257 > 100 µM | HOP-62 > 100 µM | MDA-N > 100 µM | MCF7 > 100 µM | A498 > 100 µM | CCRF-CEM > 100 µM | NCI-H460 > 100 µM | TK-10 > 100 µM | OVCAR-8 > 100 µM | U-251 71.8 µM | MDA-MB-435 > 100 µM | ACHN > 100 µM | RPMI-8226 > 100 µM | Hs-578T > 100 µM

COc1cc(OC)cc(Oc2nc3ccc(C(F)(F)F)cc3nc2-c2ccccc2)c1
inactive: DU-145 > 100 µM | EKVX > 100 µM | IGROV-1 > 100 µM | SF-295 > 100 µM | UACC-257 > 100 µM | HOP-62 > 100 µM | MDA-N > 100 µM | MCF7 > 100 µM | A498 > 100 µM | CCRF-CEM > 100 µM | NCI-H460 > 100 µM | TK-10 > 100 µM | OVCAR-8 > 100 µM | U-251 > 100 µM | MDA-MB-435 > 100 µM | ACHN > 100 µM | RPMI-8226 52.5 µM | Hs-578T > 100 µM

C=C1c2nc3ccccc3n2C=C(c2ccc(OC)cc2)N1c1ccccc1
inactive: DU-145 28.6 µM | EKVX 19 µM | IGROV-1 5.85 µM | SF-295 3.44 µM | UACC-257 13.3 µM | HOP-62 36.8 µM | MDA-N 1.43 µM | MCF7 4.76 µM | A498 31 µM | CCRF-CEM 3.66 µM | NCI-H460 3.94 µM | TK-10 32.7 µM | OVCAR-8 8.61 µM | U-251 5.31 µM | MDA-MB-435 1.17 µM | ACHN 39.7 µM | RPMI-8226 3.65 µM | Hs-578T 14.4 µM

CCCCCCCCCCCCCCCCCCNc1ccn(C2OC(COP(=O)(O)OCC3OC(n4ccc(N)nc4=O)C(O)C3O)C(O)C2O)c(=O)n1 (stereo not given)
inactive: DU-145 44.2 µM | EKVX > 100 µM | IGROV-1 30.3 µM | SF-295 > 100 µM | UACC-257 > 100 µM | HOP-62 29.6 µM | MDA-N > 100 µM | MCF7 45.2 µM | A498 > 100 µM | CCRF-CEM 16.1 µM | NCI-H460 14.3 µM | TK-10 > 100 µM | OVCAR-8 20 µM | U-251 57.8 µM | MDA-MB-435 > 73.1 µM | ACHN 29.9 µM | RPMI-8226 > 100 µM | Hs-578T > 100 µM

Oc1cc(-c2ccccn2)nc2cc(F)ccc12
inactive: EKVX 42.9 µM | IGROV-1 > 100 µM | SF-295 > 100 µM | UACC-257 > 100 µM | HOP-62 > 100 µM | M19-MEL 56.6 µM | NCI-H460 38.7 µM | TK-10 > 100 µM | OVCAR-8 > 100 µM | ACHN > 100 µM | RPMI-8226 92.3 µM
